Drawing on a melting point compilation (Tetko et al.), this text covers melting point for 123 molecules.

Each structure is given as a SMILES string.

Molecule `CC(=O)c1cnc2ccsc2c1` had a melting point of 132 to 134 °C.
The same measure for `CC(=O)NCc1ccc(C(C)=O)s1`: 129 to 131 °C; for `O=c1ccc2c([nH]1)CCC2`: 35 to 39 °C; for `Cc1ccc(NC(=O)C(=O)O)cc1`: 170 to 172 °C.
Next, `CC(=O)CC(=O)N1CCOCC1`: 68 to 70 °C.
The same measure for `Cc1c(C(=O)O)c(O)nc2ccccc12`: 254 to 256 °C.
For `CC1CSc2ccccc2NC1=O` (stereo not drawn), the melting point was in the range of 178 to 180 °C.
The same measure for `CCn1nnnc1S`: 18 to 20 °C; for `O=C(O)C1CC(=O)N(C2CC2)C1` (stereo not drawn): 93 to 95 °C; for `O=C1CCNc2ccc(F)cc21`: 49 to 51 °C.
`CNS(=O)(=O)c1ccc(-c2cccs2)c(C(=O)O)c1` displayed a melting point of 164 to 166 °C.
The same measure for `O=C1CCC(Cc2ccc(O)cc2)O1` (stereo not drawn): 104 to 106 °C; for `CCOCCS(=O)(=O)NCC(=O)O`: 63 to 65 °C; for `OCc1cnns1`: 34 to 36 °C.
The same measure for `O=C(O)c1cc(Br)nn1-c1ccc(F)cc1`: 177 to 179 °C; for `C/C(=N\O)c1cc(C(=O)O)c[nH]c1=O`: 281 to 283 °C.
For `Nc1nc2nc(-c3ccccc3)cc(C(F)(F)F)c2s1`, the melting point lay within 234 to 236 °C.
On to `COC(=O)C(=O)CC(=O)c1ccc(OC)cc1OC`, for which the melting point was 101 to 103 °C.
Molecule `COc1ccc(N)cc1OCCN(C)C` displayed a melting point of 70 to 72 °C.
Next, `CCCc1nc2c(c(=O)[nH]1)CCN(Cc1ccccc1)C2`: 171 to 173 °C; `COC(=O)CCNc1ccncc1[N+](=O)[O-]`: 93 to 95 °C; `O=C(O)c1ccc(=O)n(-c2ccccc2F)c1`: 249 to 251 °C.
The same measure for `Cc1ccc(C(=O)CCl)s1`: 45 to 47 °C; for `COc1ncccc1O`: 64 to 66 °C; for `CN(CC(=O)Nc1ccccc1Cl)C(=O)CCl`: 115 to 117 °C.
The same measure for `CNC(=O)COc1ccc(C=O)cc1OC`: 105 to 107 °C; for `O=C1CN(c2ccccc2)C(=O)N1`: 190 to 192 °C; for `NC(=O)c1c(NC(=O)CCC(=O)O)sc2c1CCC2`: 231 to 233 °C.
The molecule `Nc1cnc2ccccc2n1` registered a melting point of 138 to 140 °C.
The same measure for `COc1ccc(CC(=O)NCc2ccc(C(=O)O)cc2)cc1`: 229 to 231 °C.
With `O=C(O)C1(c2ccc(F)cc2)CC1`, the melting point was 126 to 128 °C.
In turn, `O=C(O)c1occc1-c1ccccc1` showed a melting point of 142 to 144 °C.
Next, `CN1C(=O)c2ccc(NC(=O)CCl)cc2C1=O`: 203 to 205 °C.
The same measure for `CC(=O)Nc1ccc(C)cc1N`: 132 to 134 °C; for `Cc1nn(C)c(C)c1C(O)C(F)(F)F` (stereo not drawn): 140 to 142 °C.
Next, `CCCc1nn(-c2ccccc2F)c(Cl)c1C(=O)O`: 169 to 171 °C; `CC(C)CNS(=O)(=O)c1ccc(C(=O)O)cc1`: 238 to 240 °C; `O=C(O)C1CCCN1C(=O)c1ccc([N+](=O)[O-])s1` (stereo not drawn): 161 to 163 °C.
In turn, `N#Cc1ccccc1Oc1cnccn1` yielded a melting point of 73 to 75 °C.
Next, `N#Cc1ccsc1NC(=O)CCCl`: 150 to 152 °C.
Next, `Clc1ccc(N2CCOCC2)nn1`: 131 to 133 °C.
The same measure for `O=Cc1cccc(OCCC(=O)O)c1`: 98 to 100 °C.
Turning to `CC(Cc1ccccc1)n1cccc1C(=O)O` (stereo not drawn), the melting point was in the range of 78 to 80 °C.
`O=C(O)c1ccc(SC(F)F)cc1` came in with a melting point of 154 to 156 °C.
In turn, `C=CCn1c(S)n[nH]c1=O` registered a melting point of 135 to 137 °C.
Next, `CN1CCN(C(=O)c2ccccc2N)CC1`: 74 to 76 °C; `CC(C)(C)n1nc(C(=O)O)cc1C1CC1`: 119 to 121 °C.
The same measure for `O=C1CCOc2c(Cl)cccc21`: 62 to 64 °C; for `Cc1c(C(=O)O)ccc2cnc(C3CC3)n12`: 204 to 206 °C; for `COc1cc(N)ccc1S(N)(=O)=O`: 241 to 243 °C.
The same measure for `O=C(CCl)Nc1cccc(S(=O)(=O)N2CCOCC2)c1`: 157 to 159 °C; for `O=C(O)c1ccc(COc2cccc(Br)c2)o1`: 171 to 173 °C; for `Cn1nc(Br)c2c(=O)[nH]cnc21`: 296 to 298 °C.
`O=Cc1cn2cccc(F)c2n1`: the melting point was in the range of 163 to 165 °C.
For the molecule `NC(=O)CO`, the melting point was 124 to 126 °C.
For `O=C(O)Cn1ncc2ccc([N+](=O)[O-])cc21`, the melting point fell in the range of 219 to 221 °C.
`O=C1NC(=O)C2(CCCc3sccc32)N1` (stereo not drawn) displayed a melting point of 267 to 269 °C.
In turn, `O=C(O)CCOc1ccc([N+](=O)[O-])cc1` had a melting point of 116 to 118 °C.
Next, `COC(=O)c1cc(SC(=O)N(C)C)c(OC)cc1[N+](=O)[O-]`: 139 to 141 °C.
The same measure for `CC1(c2ccc3c(c2)OCO3)NC(=O)NC1=O` (stereo not drawn): 197 to 199 °C; for `Cn1cc(S(=O)(=O)Cl)cc1C(=O)O`: 164 to 166 °C.
Turning to `N#Cc1ccc(C=C2CCn3c2nc2cc(C(=O)O)ccc2c3=O)cc1`, the melting point lay within 300 to 302 °C.
Next, `OC1CCCCC1c1ccc(Cl)cc1` (stereo not drawn): 83 to 85 °C; `Cn1ccc(NC(=O)CC#N)n1`: 159 to 161 °C.
The same measure for `Cc1nnc(-c2ccccc2C(=O)O)o1`: 158 to 160 °C.
In the case of `CC(C)C(=O)Nc1cc(C(=O)O)c(F)cc1F`, the melting point lay within 233 to 235 °C.
The same measure for `O=C(O)CN1CCN(C(=O)OCc2ccccc2)CC1`: 142 to 144 °C; for `Nc1noc(-c2ccoc2)n1`: 179 to 181 °C; for `COC(=O)/C(C#N)=C/c1ccc(OC)cc1`: 105 to 107 °C.
Next, `CCN1N=C(c2ccccc2)CC1=O`: 140 to 142 °C; `CCn1c(SCC(=O)O)nnc1-c1ccco1`: 173 to 175 °C; `CC(=O)c1ccc(S(=O)(=O)N2CCCCCC2)cc1`: 73 to 77 °C.
The same measure for `Cn1nnc2ccc(C(=O)O)cc21`: 271 to 273 °C.
`CCS(=O)(=O)c1ccc(CCC(=O)O)cc1` yielded a melting point of 119 to 121 °C.
The same measure for `Cc1cc(CC(=O)O)c(C)n1-c1ccc(Cl)cc1`: 118 to 120 °C.
The same measure for `CC(C)S(N)(=O)=O`: 44 to 46 °C.
`CC(C)CC1CC(C(=O)O)CC(=O)N1` (stereo not drawn) came in with a melting point of 188 to 190 °C.
In turn, `O=C(O)C1CC(=O)N(c2ccc3c(c2)CCC3)C1` (stereo not drawn) gave a melting point of 179 to 181 °C.
Next, `Cc1ccc(C(N)Cn2ccnc2)c(C)c1` (stereo not drawn): 79 to 81 °C.
The same measure for `COc1ccc(Cn2[nH]cc(Br)c2=N)cc1`: 92 to 94 °C; for `Cn1c(C2CC2)nc2cnccc21`: 100 to 102 °C.
Next, `O=C(O)C1CC1c1ccc(Cl)cc1Cl` (stereo not drawn): 157 to 159 °C; `O=C(O)c1ccnc(OC2CCOC2)c1` (stereo not drawn): 109 to 111 °C.
The molecule `Nc1cc(Cl)c(OC(F)F)c(Cl)c1` had a melting point of 82 to 84 °C.
The same measure for `COCCOc1ccc(C(N)=S)cc1`: 141 to 143 °C; for `O=C1NC2(CCN(Cc3ccccc3)CC2)CO1`: 164 to 166 °C.
`C1Cc2nnc(C3CCNCC3)n2C1`: the melting point was in the range of 126 to 128 °C.
The same measure for `COc1cc(CN)c2ccccc2n1`: 79 to 81 °C; for `Cn1c(=O)oc2c(C(=O)O)cccc21`: 309 to 311 °C.
The same measure for `CCc1nc(C)ncc1C(=O)O`: 158 to 160 °C; for `COc1ccc(-c2nnc(S)n2C(C)C)cc1`: 218 to 220 °C; for `OCc1cnc2ccccn12`: 123 to 125 °C.
Next, `COc1cccc(C2CC2C(=O)O)c1` (stereo not drawn): 90 to 92 °C; `CNC(C)c1ccc(S(C)=O)cc1` (stereo not drawn): 52 to 54 °C.
`CNc1ncc(C(=O)OC)s1` showed a melting point of 115 to 117 °C.
The same measure for `CC(=O)NCC(O)c1ccccc1` (stereo not drawn): 119 to 121 °C.
The same measure for `COc1ccc(CC(O)C(=O)O)cc1` (stereo not drawn): 84 to 86 °C; for `OC(c1ccccc1)c1nc(-c2ccccc2)no1` (stereo not drawn): 97 to 99 °C.
The same measure for `O=C(CO)N1CCNCC1`: 69 to 71 °C.
Molecule `Nc1cc(-c2ccncc2)n[nH]1` returned a melting point of 194 to 196 °C.
Regarding `CC(c1ccccc1)c1ccc(O)cc1` (stereo not drawn), the melting point fell in the range of 57 to 59 °C.
The same measure for `Cc1c(C(=O)O)oc2c(Cl)cc(Br)cc12`: 272 to 274 °C; for `O=C1NC(=O)N2CCCCC12` (stereo not drawn): 114 to 116 °C.
The same measure for `Cc1cc2nc(Cl)cc(=O)n2o1`: 203 to 204 °C; for `O=Cc1c(OCC(=O)O)ccc2ccccc12`: 174 to 176 °C.
The same measure for `Nc1nnc(Cc2ccc(Cl)cc2)o1`: 167 to 169 °C; for `CC(C)(O)c1cn(-c2ccccc2)nn1`: 89 to 91 °C.
As for `Clc1nc(-c2ccccc2)cs1`, the melting point was in the range of 55 to 57 °C.
The same measure for `NC(C(=O)O)c1cc(F)ccc1F` (stereo not drawn): 229 to 231 °C.
Next, `O=c1cc(-c2ccccc2)c2cc(Cl)ccc2[nH]1`: 257 to 259 °C.
`Cc1ccc(-n2[nH]c(C(=O)O)c(CCO)c2=O)cc1` gave a melting point of 199 to 201 °C.
Next, `O=C(O)c1cc(S(=O)(=O)Cl)ccc1Cl`: 105 to 115 °C.
In turn, `CCc1nc(COc2ccc(C(=O)OC)cc2)no1` yielded a melting point of 44 to 46 °C.
The same measure for `CNC(=O)CC(=O)O`: 104 to 106 °C.
The same measure for `CCOC(=O)c1c(CCCO)cnc2cc(C)nn12`: 76 to 78 °C; for `COc1ncnc(N(C)C)c1N`: 69 to 71 °C; for `NCc1ccnc(N2CCCC2)n1`: 63 to 65 °C.
Next, `O=C(O)c1ccc(OC2CCC2)cc1Cl`: 127 to 129 °C; `CNc1nc(-c2ccccc2)no1`: 124 to 126 °C; `O=C(O)C1CCCN(C(=O)c2ccncc2)C1` (stereo not drawn): 258 to 260 °C.
Take `Cc1cc(Br)c(S(=O)(=O)Cl)c(Br)c1`: the melting point fell in the range of 124 to 126 °C.
Next, `CC(C)n1ncc2c(C(=O)O)cc(-c3ccccc3)nc21`: 198 to 200 °C; `COc1ccc(C(=O)O)cc1S(=O)(=O)NCc1ccc(Cl)cc1`: 230 to 232 °C.

The melting point is the temperature of the solid-liquid transition.
